Tests used:
dog [1] = conditions: Chronic toxicity, beagle, Oral, Gavage/Intubation, dose end: 6 month, group: systemic
rat [2] = conditions: Prenatal developmental toxicity study, sprague dawley, Oral, Gavage/Intubation, dose end: 17 GD
dog [3] = conditions: Sub-acute repeat dose toxicity, beagle, Oral, Capsule, dose end: 4 week, group: systemic
rabbit [4] = conditions: Prenatal developmental toxicity study, himalayan, Oral, Gavage/Intubation, dose end: 19 GD
rat [5] = conditions: Sub-acute repeat dose toxicity; sprague dawley; Oral; Gavage/Intubation; dose end: 28 day; group: systemic; systemic / in life observation / body weight / body weight gain + systemic / in life observation / clinical signs / alopecia + systemic / in…
rat [6] = conditions: Prenatal developmental toxicity study, sprague dawley, Oral, Gavage/Intubation, dose end: 17 GD; remark: listed apart in the source
dog [7] = conditions: Chronic toxicity, beagle, Oral, Gavage/Intubation, dose end: 1 year, group: systemic
rabbit [8] = conditions: Prenatal developmental toxicity study, himalayan, Oral, Gavage/Intubation, dose end: 19 GD; remark: listed apart in the source
rat [9] = conditions: Chronic toxicity, sprague dawley, Oral, Gavage/Intubation, dose end: 6 month, group: systemic
rat [10] = conditions: Fertility (Segment I); sprague dawley; Oral; Gavage/Intubation; dose end: 7 GD; group: parental; systemic / in life observation / body weight / body weight gain + systemic / in life observation / clinical signs / motor activity + …
[11] = systemic / in life observation / body weight / body weight gain + systemic / in life observation / clinical signs / vomitting
[12] = systemic / in life observation / body weight / body weight gain + systemic / in life observation / clinical signs / vomitting + systemic / …
[13] = group: developmental, developmental / developmental malformation / bone / [other] + developmental / developmental malformation / bone / absent + developmental / …
[14] = group: maternal, systemic / in life observation / body weight / body weight gain + systemic / in life observation / food consumption / food consumption + …
[15] = systemic / in life observation / body weight / body weight gain + systemic / in life observation / food consumption / food consumption + …
[16] = systemic / pathology microscopic / larynx / inflammation
[17] = group: developmental, systemic / in life observation / body weight / fetal weight
[18] = group: maternal, systemic / in life observation / food consumption / food consumption
[19] = group: maternal, systemic / in life observation / food consumption / food consumption + systemic / in life observation / body weight / body weight + systemic…
[20] = group: maternal, reproductive / reproductive performance / postimplantation loss / postimplantation loss + reproductive / reproductive performance / …
[21] = systemic / in life observation / body weight / body weight gain + systemic / pathology microscopic / eye / opacity
[22] = systemic / in life observation / clinical signs / convulsions + systemic / in life observation / clinical signs / general pallor + systemic…
[23] = group: maternal, systemic / in life observation / body weight / body weight + systemic / in life observation / body weight / body weight gain + systemic / in…
[24] = systemic / in life observation / clinical signs / convulsions + systemic / in life observation / mortality / mortality + systemic / …
[25] = systemic / pathology microscopic / adrenal gland / dilatation + systemic / pathology microscopic / thyroid gland / hyperplasia + systemic / …

Question: For `O=C(Oc1ccc(Br)cc1)N1CCN2CCC1CC2`, which LEL (dog [1]; [11]) is on record?
Answer: 1.5 mg/kg/day

Question: What about the NEL (dog [1]; [11]) of the same compound?
Answer: < 1.5 mg/kg/day

Question: What about the LOAEL (dog [1]; [12]) of the same compound?
Answer: > 15 mg/kg/day

Question: What about the NOAEL (dog [1]; [12]) of the same compound?
Answer: ≥ 15 mg/kg/day

Question: What about the LOAEL (rat [2]; [13]) of the same compound?
Answer: 50 mg/kg/day

Question: And the NEL (rat [2]; [13])?
Answer: 5 mg/kg/day

Question: What about the NOAEL (rat [2]; [13]) of the same compound?
Answer: 20 mg/kg/day

Question: And the LEL (rat [2]; group: developmental, developmental / developmental malformation / bone / incomplete ossification)?
Answer: 20 mg/kg/day

Question: And the LOAEL (rat [2]; [14])?
Answer: 50 mg/kg/day

Question: What about the NEL (rat [2]; [14]) of the same compound?
Answer: 5 mg/kg/day

Question: And the NOAEL (rat [2]; [14])?
Answer: 20 mg/kg/day

Question: And the LEL (rat [2]; group: maternal, systemic / organ weight / uterus / nos)?
Answer: 20 mg/kg/day

Question: What about the LOAEL (dog [3]; [15]) of the same compound?
Answer: > 30 mg/kg/day

Question: What about the NOAEL (dog [3]; [15]) of the same compound?
Answer: ≥ 30 mg/kg/day

Question: And the LEL (dog [3]; [16])?
Answer: 3 mg/kg/day

Question: And the NEL (dog [3]; [16])?
Answer: < 3 mg/kg/day

Question: What about the LEL (rabbit [4]; [17]) of the same compound?
Answer: 24 mg/kg/day

Question: And the LOAEL (rabbit [4]; [17])?
Answer: > 24 mg/kg/day

Question: And the NEL (rabbit [4]; [17])?
Answer: 8 mg/kg/day

Question: What about the NOAEL (rabbit [4]; [17]) of the same compound?
Answer: ≥ 24 mg/kg/day

Question: What about the LEL (rabbit [4]; [18]) of the same compound?
Answer: 3 mg/kg/day

Question: And the NEL (rabbit [4]; [18])?
Answer: < 3 mg/kg/day

Question: And the LOAEL (rabbit [4]; [19])?
Answer: > 24 mg/kg/day

Question: And the NOAEL (rabbit [4]; [19])?
Answer: ≥ 24 mg/kg/day

Question: And the LEL (rat [5])?
Answer: 5 mg/kg/day

Question: What about the LOAEL (rat [5]) of the same compound?
Answer: 25 mg/kg/day

Question: What about the NEL (rat [5]) of the same compound?
Answer: < 5 mg/kg/day

Question: What about the NOAEL (rat [5]) of the same compound?
Answer: 5 mg/kg/day

Question: What about the LEL (rat [6]; [17]) of the same compound?
Answer: 75 mg/kg/day

Question: What about the LOAEL (rat [6]; [17]) of the same compound?
Answer: > 75 mg/kg/day

Question: What about the NEL (rat [6]; [17]) of the same compound?
Answer: 25 mg/kg/day

Question: What about the NOAEL (rat [6]; [17]) of the same compound?
Answer: ≥ 75 mg/kg/day

Question: And the LOAEL (rat [6]; [20])?
Answer: > 75 mg/kg/day

Question: And the NEL (rat [6]; [20])?
Answer: 5 mg/kg/day

Question: What about the NOAEL (rat [6]; [20]) of the same compound?
Answer: ≥ 75 mg/kg/day

Question: And the LEL (rat [6]; group: maternal, reproductive / reproductive performance / preimplantation loss / preimplantation loss + systemic / in life observation / body weight / body …)?
Answer: 25 mg/kg/day

Question: What about the LEL (dog [7]; [21]) of the same compound?
Answer: 5 mg/kg/day

Question: And the NEL (dog [7]; [21])?
Answer: < 5 mg/kg/day

Question: What about the LOAEL (dog [7]; [22]) of the same compound?
Answer: > 12.5 mg/kg/day

Question: And the NOAEL (dog [7]; [22])?
Answer: ≥ 12.5 mg/kg/day

Question: And the LEL (rabbit [8]; [17])?
Answer: 30 mg/kg/day

Question: And the LOAEL (rabbit [8]; [17])?
Answer: > 30 mg/kg/day

Question: And the NEL (rabbit [8]; [17])?
Answer: 10 mg/kg/day

Question: And the NOAEL (rabbit [8]; [17])?
Answer: ≥ 30 mg/kg/day

Question: What about the LEL (rabbit [8]; [23]) of the same compound?
Answer: 10 mg/kg/day

Question: And the LOAEL (rabbit [8]; [23])?
Answer: > 30 mg/kg/day

Question: And the NEL (rabbit [8]; [23])?
Answer: 3 mg/kg/day

Question: What about the NOAEL (rabbit [8]; [23]) of the same compound?
Answer: ≥ 30 mg/kg/day

Question: And the LOAEL (rat [9]; [24])?
Answer: 75 mg/kg/day

Question: What about the NOAEL (rat [9]; [24]) of the same compound?
Answer: 25 mg/kg/day

Question: And the LEL (rat [9]; [25])?
Answer: 5 mg/kg/day

Question: And the NEL (rat [9]; [25])?
Answer: < 5 mg/kg/day

Question: And the LEL (rat [10])?
Answer: 50 mg/kg/day

Question: What about the LOAEL (rat [10]) of the same compound?
Answer: 50 mg/kg/day

Question: What about the NEL (rat [10]) of the same compound?
Answer: 20 mg/kg/day

Question: What about the NOAEL (rat [10]) of the same compound?
Answer: 20 mg/kg/day

— EPA's ToxRefDB 2
